# Data: patent US20090247495A1, “CU[…] AND USES THEREOF” (priority 2007, published 2009)
# How the values were obtained:
# [1] = tested on: colon cancer cell line (HT29); assay: MTT cell cytotoxicity assay, HT29; assay type: cell-based, human; conditions: 48 hours
# Description: (§1) Three human cancer cell lines (HepG2(liver), HT29(colon) and MCF-7(breast)) were purchased from American Type Culture Collection (ATCC, Manassas, Va., USA). The cells were cultured in RPMI 1640 medium supplemented with 5% (v/v) fetal bovine serum (FBS) and 100 units/ml penicillin and streptomycin (Invitrogen Life Technologies) in a humidified 5% CO2 atmosphere at 37° C.
# The cytotoxic effect of CuB and CuD on these three cancer cell lines were determined using MTT (3-[4,5-dimethylthiazol-2-yl]-2,5-diphenyl tetrazolium bromide) labeled cell cytotoxicity assay. A total of 1×10^4 cells were seeded into a 96-well plate for 24 hours prior to cucurbitacin B (CuB) or cucurbitacin D (CuD) treatment. They were then treated with different dosages of CuB/CuD for 48 hours. After the treatment, 20 μl of MTT (5 mg/ml) was added to each well and incubated for 4 hrs. Then the medium was discarded and 100 μl of dimethyl sulfoxide was added. The absorbance at 570 nm was then measured by using FLUOstar OPTIMA equipment (BMG, LABTECH GmbH, Germany). The percentage of inhibition against different dosages of CuB/CuD were plotted using the Prism software and the 50% inhibition concentration (IC50) were obtained.
# Stat3 = assay: Western blot of Stat3 activation in HepG2, HT29 and MCF-7 cells; assay type: cell-based, human
# Erk1/2 = assay: Western blot of Erk1/2 in HepG2, HT29 and MCF-7 cells; assay type: cell-based, human
# Description: (§2) The human cancer cells line were serum starved for 18 hours prior to CuB/CuD treatment. Cells were incubated in a 6-well plate filled with 5 ml growth medium (RPMI with 0.2% FBS and 1% PS) at the cell density of 1×10^5 cells/ml, in the presence or absence of two different dosages of CuB/CuD for various time intervals. The drug treatment was terminated by centrifugation at 1,500 rpm for 5 minutes and the cells were rinsed twice with phosphate-buffered saline and lysed at 4° C. in a lysis buffer containing 50 mM Tris-HCl, pH7.5, 100 mM NaCl, 5 mM EDTA, 40 mM NaP2O7, 1% Triton X-100, 1 mM dithiothreitol, 200 μM Na3VO4, 100 uM phenylmethysufonyl fluoride, 2 μg/ml leupeptin, 4 μg/ml aprotinin and 0.7 μg/ml pepstatin. The insoluble protein lysate were removed by centrifugation for 10 minutes at 13,000 rpm. Fifteen micrograms of protein lysate was resolved using 10% SDS-polyacryamide gel electrophoresis (PAGE) and then subjected to western blot anaylsis. Western blots were performed with anti-Stat3, anti-Erk1/2 and anti-hsp27 antibodies specific for phosphor- and total Stat3, Erk and hsp27 proteins. The protein bands were then visualized with the Enhanced Chemiluminescence Plus (ECL Plus) detection system (Amersham). • 6.2.8.1 Inhibition Effect Cucurbitacin B/Cucurbitacin D on Stat3 Activation in HepG2 and HT29 Cells
# (§3) Cells were incubated either with CuB or CuD (25 ug/ml or the dosage of IC50) for various time intervals (5, 10 or 30 mins, 1 or 4 hours). The Stat3 activation was detected by western blot.
# hsp27 = assay: Western blot of hsp27 in HepG2, HT29 and MCF-7 cells; assay type: cell-based, human
# Description: as §2, §3
# melanoma = assay: SRB growth inhibition, melanoma lines of the NCI panel; assay type: cell-based, human; conditions: 48 hours
# Text: Human cancer cell lines from the 59-NCI Cancer Cell Line Panel including leukemia, melanoma and cancers of breast, brain, colon, lung, ovary, prostate and kidney, were purchased from the National Institute of Cancer (USA). The growth inhibition (GI50) of these cell lines treated with cucurbitacin B and cucurbitacin D in various concentrations was investigated.
# 59 human cancer cell lines were maintained in RPMI 1640 (Invitrogen Life Technologies, CA, USA) supplemented with 5% Fetal Bovine Serum, 2 mM L-glutamine and 1% Penicillin/Streptomycin (Invitrogen Life Technologies) at 37° C. with 5% CO2. All chemicals were purchased from Sigma (St. Louis, Mo., USA) unless specified otherwise.
# Sulforhodamine B (SRB) assay was applied to determine the cytostatic effect of cucurbitacin B and cucurbitacin D. SRB is a dye that binds to cellular proteins and will be dissolved in base. The biomass of total protein can be measured at 520 nm using a plate reader.
# Cells were inoculated into 96-well microtiter plates including “Time zero” (Tz) plates in 100 μl at cell concentrations from 5000 to 40,000 cells per well according to NCI guideline. The cells were incubated at 37° C. with 5% CO2 for 24 hours. […] Bound SRB was solubilized with 100-200 ul per well of 10 mM trizma base and absorbance was measured at a wavelength of 520 nm. The percentage of growth inhibition was calculated as follows: […]
# [2] = tested on: Human cancer cell lines from the 59-NCI Cancer Cell Line Panel; assay type: cell-based
# [3] = tested on: Human cancer cell lines from the 59-NCI Cancer Cell Line Panel; assay: Apoptosis (Annexin V-FITC / PI) by flow cytometry, 18 selected NCI panel cell lines; assay type: cell-based; conditions: 48 hours; GI50, ½ GI50 and ¼ GI50
# Description: Apoptosis is the important mechanism for cell death in normal cells. In cancer cells, this mechanism fails and cells proliferate without control. Human cancer cell lines from the 59-NCI Cancer Cell Line Panel including leukemia, melanoma and cancers of breast, brain, colon, lung, ovary, prostate and kidney were purchased from the National Institute of Cancer. […] They were treated with cucurbitacin B and cucurbitacin D at three different concentrations to elucidate their ability to induce any changes in cell cycle.
# Cancer cell lines were maintained in RPMI 1640 supplemented with 5% Fetal Bovine Serum, 2 mM L-glutamine and 1% Penicillin/Streptomycin at 37° C. with 5% CO2. Cells were inoculated into tissue culture flask at cell concentrations from 50000 to 400,000 cells/ml according to the NCI guideline. The cells were incubated at 37° C. with 5% CO2 for 24 hours. Cucurbitacin B and cucurbitacin D were added to the cells of final concentrations ranging from 6 to 350 nM (GI50, ½ GI50 and ¼ GI50 of particular cell line) for 48 hours at 37° C. with 5% CO2. Cells (3×10^5) were then harvested and stained with 5 μl Annexin V-FITC and 10 μl propidium iodine (Becton Dickinson, CA, USA) for 15 minutes at room temperature. Ten thousands events were collected by the FACScaliber and the percentage of different cell populations were analyzed by the CellQuest™ software (Becton Dickinson).
# PARP = assay: Western blot of PARP cleavage in HL60 cells; assay type: cell-based, human
# Description: (§4) Control cells, as well as cells treated with cucurbitacin B or cucurbitacin D, were harvested and collected by centrifugation. Whole cell extracts were then prepared by lysing the cells using 4% sodium dodecyl sulfate (SDS) gel sample buffer. Cell extracts were boiled for 10 min and chilled on ice, subjected to 12% SDS-polyacrylamide gel electrophoresis, and transferred to a PVDF membrane. Each membrane was cut into to two pieces with one piece incubated at 4° C. overnight with antibodies against cell cycle signaling proteins, such as ERK, phosphorlated-ERK, p38, phosphorlated-p38, Cyclin E, Retinoblastoma, phosphalated-Retinoblastoma and c-myc, and apoptotic protein (PARP). β-actin was used as a control for protein loading. All antibodies were obtained from Cell signaling Technologies (USA). Then membranes were incubated at 37° C. for 1 h with secondary antibody conjugated with peroxidase, and the signal was detected using chemiluminescence detection reagent. The relative protein level was calculated as the ratio of the optical density of the protein of interest to that of β-actin.
# MAPK signaling pathway = assay: Western blot of MAPK / cell cycle signaling proteins in HL60 cells; assay type: cell-based, human
# Description: as §4
# [4] = tested on: Human liver cancer cell lines HepG2; assay: MTT cytotoxicity assay, matrix combination of CuB and Sb on liver cancer cells; assay type: cell-based; conditions: HepG2, 2 days, CuB 0 μM
# Description: as §1, with “Human liver” for “Three human”, “HepG2 was” for “(HepG2(liver), HT29(colon) and MCF-7(breast)) were”
# A total of 1×10^4 cells were seeded into a 96-well plate for 24 hours prior to drug treatment. They were then treated with different dosages (a multiple of 20-fold of IC50 values) of CuB or Sb for 48 hours. After the treatment, 20 μl of MTT (5 mg/ml) was added to each well and incubated for 4 hrs. Then the medium was discarded and 100 μl of dimethyl sulfoxide was added. The absorbance at 570 nm was then measured by using FLUOstar OPTIMA equipment (BMG, LABTECH GmbH, Germany). The percentage of inhibition against different dosages of CuB or Sb were plotted using the Prism software and the 50% inhibition concentration (IC50) were obtained.
# The cells were then treated for 2 days and the % inhibition of growth is determined.
# The excess over Bliss additivism may be calculated using the following formula and shown in Table 4: • Bliss Additivism: Combined response=CuB+Sb−(CuB)(Sb) where each effect is expressed as fractional inhibition between 0 and 1 • Excess over additivism=observed response−combined response
smiles,measurement,setting,value
CC(C)(O)/C=C/C(=O)[C@](C)(O)[C@H]1[C@H](O)C[C@@]2(C)[C@@H]3CC=C4[C@@H](C[C@H](O)C(=O)C4(C)C)[C@]3(C)C(=O)C[C@]12C [cucurbitacin D],IC50,[1],0.27 µg/mL
same,Stat3 activation,"Stat3; HepG2 cells and HT29 cells, 25 ug/ml, 30 minutes",inhibited significantly
same,Stat3 activation,Stat3; MCF-7 cells,no significant change
same,expression of Erk1/2,"Erk1/2; HT29, 5 minutes of treatment",up-regulated the expression of Erk1/2 significantly
same,expression of Erk1/2,"Erk1/2; HepG2, 30 minutes of treatment",up-regulated the expression of Erk1/2 significantly
same,Erk activation,"Erk1/2; MCF-7 cells, 5 minutes",significant Erk activation
same,Hsp27 activation,"hsp27; HT29, 10 minutes",significant up-regulation
same,Hsp27 activation,"hsp27; HepG2, 30 minutes",significant up-regulation
same,Hsp27 activation,"hsp27; MCF-7, 4 hours",significant up-regulation
same,GI50,melanoma,60 nM
same,cell lines with G2/M arrest,[2],9 out of 18
same,cell cycle effect,"[2]; SF-295, 48 hours",G2/M arrest and endoreduplication
same,cell lines in which apoptosis was induced,[3],11 out of 18
same,apoptosis marker PARP,PARP,cleavage of PARP
same,"regulation of ERK, cyclin E, retinoblastoma phosphorylation and c-myc",MAPK signaling pathway,"ERK activation, followed by cyclin E down-regulation, inhibition of retinoblastoma's phosphorylation, and ultimately down-regulation of c-myc"
"CNC(=O)c1cc(Oc2ccc(NC(=O)Nc3ccc(Cl)c(C(F)(F)F)c3)cc2)ccn1 [sorafenib, reference compound]",% inhibition,[4]; Sb 0.1 μM,4.61%
same,Excess over Highest Single Agent Model,[4]; Sb 0.1 μM,0
same,% inhibition,[4]; Sb 0.3 μM,27.69%
same,Excess over Highest Single Agent Model,[4]; Sb 0.3 μM,0
same,% inhibition,[4]; Sb 0.9 μM,39.10%
same,Excess over Highest Single Agent Model,[4]; Sb 0.9 μM,0
same,% inhibition,[4]; Sb 2.7 μM,35.35%
same,Excess over Highest Single Agent Model,[4]; Sb 2.7 μM,0
same,% inhibition,[4]; Sb 8.4 μM,82.28%
same,Excess over Highest Single Agent Model,[4]; Sb 8.4 μM,0
